From patent publication US6479435B1, “Diaryl ethers and processes for their preparation and herbicidal and desiccant compositions containing them” (ISK Americas Incorporated, priority 1997, dated 2002)

Tests used:
Type in all cases: in vivo
[1] = system: Johnsongrass (Sorghum halepense, SORHA); test: Pre-emerge greenhouse herbicide test, phytotoxicity rating; settings: 14 days after application, rating scale 0-100
Method in brief: (§1)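 Visual 0–100 injury rating (100 = all plants dead) taken 14 days after treatment. Rates of 125–1000 g ai/ha in acetone, 187 l/ha, were sprayed onto soil one day post-sowing; pots were surface-watered to incorporate, then bottom-watered.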

[2] = system: barnyardgrass (Echinochloa crusgalli, ECHCG); test: as above; settings: 14 days after application, rating scale 0-100
Method in brief: as §1

[3] = system: common ragweed (Ambrosia artemisiifolia L., AMBEL); test: as above; settings: 14 days after application, rating scale 0-100
Method in brief: as §1

[4] = system: green foxtail (Setaria viridis, SETVI); test: as above; settings: 14 days after application, rating scale 0-100
Method in brief: as §1

[5] = system: ivyleaf morningglory (Ipomoea hederacea, IPOHE); test: as above; settings: 14 days after application, rating scale 0-100
Method in brief: as §1

[6] = system: lambsquarters (Chenopodium album, CHEAL); test: as above; settings: 14 days after application, rating scale 0-100
Method in brief: as §1

[7] = system: large crabgrass (Digitaria sanguinalis, DIGSA); test: as above; settings: 14 days after application, rating scale 0-100
Method in brief: as §1

[8] = system: redroot pigweed (Amaranthus retroflexus, AMARE); test: as above; settings: 14 days after application, rating scale 0-100
Method in brief: as §1

[9] = system: sicklepod (Cassia obtusifolia, CASOB); test: as above; settings: 14 days after application, rating scale 0-100
Method in brief: as §1

[10] = system: velvetleaf (Abutilon theophrasti, ABUTH); test: as above; settings: 14 days after application, rating scale 0-100
Method in brief: as §1

[11] = system: field corn (Zea mays L., var. Dekalb 535, CORN); test: Pre-emerge greenhouse test, crop damage rating; settings: 14 days after application, rating scale 0-100
Method in brief: as §1

[12] = system: upland rice (Oryza sp., var.Tebonnet, RICE); test: Pre-emerge greenhouse test, crop damage rating; settings: 14 days after application, rating scale 0-100
Method in brief: as §1

[13] = system: soybean (Glycine max L., var. Pella 86, SOY); test: Pre-emerge greenhouse test, crop damage rating; design: key to SOY crop damage rating: 0 = no damage, 100 = complete death of all plants; settings: 14 days after application, rating scale 0-100
Method in brief: as §1

[14] = system: common ragweed (Ambrosia artemisiifolia L., AMBEL); test: Post-emerge greenhouse herbicide test, phytotoxicity rating; settings: 14 days after application; for phytotoxicity rating AMBEL: scale 0-100
Method in brief: (§2)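 Scores use a 0 (no damage) to 100 (complete kill) scale, taken 14 days after a foliar spray. Acetone solutions with 0.25% v/v non-ionic surfactant were applied by track sprayer at 187 l/ha and 63-1000 g ai/ha to bottom-watered 2-3 leaf plants.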

[15] = system: Johnsongrass (Sorghum halepense, SORHA); test: as above; settings: 14 days after application; for phytotoxicity rating SORHA: scale 0-100
Method in brief: as §2

[16] = system: barnyardgrass (Echinochloa crusgalli, ECHCG); test: as above; settings: 14 days after application; for phytotoxicity rating ECHCG: scale 0-100
Method in brief: as §2

[17] = system: green foxtail (Setaria viridis, SETVI); test: as above; settings: 14 days after application; for phytotoxicity rating SETVI: scale 0-100
Method in brief: as §2

[18] = system: ivyleaf morningglory (Ipomoea hederacea, IPOHE); test: as above; settings: 14 days after application; for phytotoxicity rating IPOHE: scale 0-100
Method in brief: as §2

[19] = system: lambsquarters (Chenopodium album, CHEAL); test: as above; settings: 14 days after application; for phytotoxicity rating CHEAL: scale 0-100
Method in brief: as §2

[20] = system: large crabgrass (Digitaria sanguinalis, DIGSA); test: as above; settings: 14 days after application; for phytotoxicity rating DIGSA: scale 0-100
Method in brief: as §2

[21] = system: redroot pigweed (Amaranthus retroflexus, AMARE); test: as above; settings: 14 days after application; for phytotoxicity rating AMARE: scale 0-100
Method in brief: as §2

[22] = system: sicklepod (Cassia obtusifolia, CASOB); test: as above; settings: 14 days after application; for phytotoxicity rating CASOB: scale 0-100
Method in brief: as §2

[23] = system: velvetleaf (Abutilon theophrasti, ABUTH); test: as above; settings: 14 days after application; for phytotoxicity rating ABUTH: scale 0-100
Method in brief: as §2

[24] = system: field corn (Zea mays L., var. Dekalb 535, CORN); test: Post-emerge greenhouse test, crop damage rating; settings: 14 days after application; for crop damage rating CORN: scale 0-100
Method in brief: as §2

[25] = system: upland rice (Oryza sp., var.Tebonnet, RICE); test: Post-emerge greenhouse test, crop damage rating; settings: 14 days after application; for crop damage rating RICE: scale 0-100
Method in brief: as §2

[26] = system: soybean (Glycine max L., var. Pella 86, SOY); test: Post-emerge greenhouse test, crop damage rating; design: key to crop damage rating SOY: 0-100 scale: 0 = no damage, 100 = complete death of all plants; settings: 14 days after application; for crop damage rating SOY: scale 0-100
Method in brief: as §2

Cn1c(C(F)(F)F)nc(-c2cc(Oc3ncccn3)c(Cl)cc2F)c1Cl [Compound 2-3]
35: phytotoxicity rating AMBEL ([3]; 125 g ai/ha) | crop damage rating CORN ([11]; 500 g ai/ha)
70: CASOB phytotoxicity rating (0-100) ([22]; 500 g al/ha)
40: RICE crop damage rating (0-100) ([25]; 63 g al/ha)
60: AMBEL phytotoxicity rating (0-100) ([14]; 500 g al/ha)
0: DIGSA phytotoxicity rating (0-100) ([20]; 63 g al/ha)
55: crop damage rating RICE ([12]; 500 g ai/ha)
30: phytotoxicity rating CASOB ([9]; 125 g ai/ha) | crop damage rating RICE ([12]; 125 g ai/ha) | AMBEL phytotoxicity rating (0-100) ([14]; 63 g al/ha) | ECHCG phytotoxicity rating (0-100) ([16]; 63 g al/ha) | CASOB phytotoxicity rating (0-100) ([22]; 63 g al/ha) | CORN crop damage rating (0-100) ([24]; 63 g al/ha)
80: phytotoxicity rating ECHCG ([2]; 125 g ai/ha) | SORHA phytotoxicity rating (0-100) ([15]; 63 g al/ha) | DIGSA phytotoxicity rating (0-100) ([20]; 500 g al/ha) | CORN crop damage rating (0-100) ([24]; 500 g al/ha)
90: phytotoxicity rating AMBEL ([3]; 500 g ai/ha) | CHEAL phytotoxicity rating (0-100) ([19]; 63 g al/ha) | RICE crop damage rating (0-100) ([25]; 500 g al/ha) | SOY crop damage rating (0-100) ([26]; 63 g al/ha) | SOY crop damage rating (0-100) ([26]; 500 g al/ha)
95: phytotoxicity rating SETVI ([4]; 125 g ai/ha) | SORHA phytotoxicity rating (0-100) ([15]; 500 g al/ha) | ECHCG phytotoxicity rating (0-100) ([16]; 500 g al/ha) | ABUTH phytotoxicity rating (0-100) ([23]; 63 g al/ha)
20: phytotoxicity rating IPOHE ([5]; 125 g ai/ha)
50: crop damage rating SOY ([13]; 125 g ai/ha)
25: crop damage rating CORN ([11]; 125 g ai/ha) | crop damage rating SOY ([13]; 500 g ai/ha)
100: phytotoxicity rating SORHA ([1]; 125 g ai/ha) | phytotoxicity rating SORHA ([1]; 500 g ai/ha) | phytotoxicity rating ECHCG ([2]; 500 g ai/ha) | phytotoxicity rating SETVI ([4]; 500 g ai/ha) | phytotoxicity rating IPOHE ([5]; 500 g ai/ha) | phytotoxicity rating CHEAL ([6]; 125 g ai/ha) | phytotoxicity rating CHEAL ([6]; 500 g ai/ha) | phytotoxicity rating DIGSA ([7]; 125 g ai/ha) | phytotoxicity rating DIGSA ([7]; 500 g ai/ha) | phytotoxicity rating AMARE ([8]; 125 g ai/ha) | phytotoxicity rating AMARE ([8]; 500 g ai/ha) | phytotoxicity rating CASOB ([9]; 500 g ai/ha) | phytotoxicity rating ABUTH ([10]; 125 g ai/ha) | phytotoxicity rating ABUTH ([10]; 500 g ai/ha) | SETVI phytotoxicity rating (0-100) ([17]; 63 g al/ha) | SETVI phytotoxicity rating (0-100) ([17]; 500 g al/ha) | IPOHE phytotoxicity rating (0-100) ([18]; 63 g al/ha) | IPOHE phytotoxicity rating (0-100) ([18]; 500 g al/ha) | CHEAL phytotoxicity rating (0-100) ([19]; 500 g al/ha) | AMARE phytotoxicity rating (0-100) ([21]; 63 g al/ha) | AMARE phytotoxicity rating (0-100) ([21]; 500 g al/ha) | ABUTH phytotoxicity rating (0-100) ([23]; 500 g al/ha)

N#Cc1cccnc1Oc1cc(-n2c(=O)n3n(c2=S)CCCC3)c(F)cc1Cl [Compound 8-20]
10: CORN crop damage rating ([11]; Rate 500 g al/ha)
25: SOY crop damage rating ([13]; Rate 500 g al/ha)
60: ECHCG phytotoxicity rating ([2]; Rate 125 g al/ha) | crop damage rating RICE ([25]; rate 500 g ai/ha)
30: phytotoxicity rating DIGSA ([20]; rate 63 g ai/ha) | phytotoxicity rating DIGSA ([20]; rate 500 g ai/ha)
80: ECHCG phytotoxicity rating ([2]; Rate 500 g al/ha)
0: phytotoxicity rating SETVI ([17]; rate 500 g ai/ha)
100: AMBEL phytotoxicity rating ([3]; Rate 500 g al/ha) | SETVI phytotoxicity rating ([4]; Rate 500 g al/ha) | IPOHE phytotoxicity rating ([5]; Rate 500 g al/ha) | CHEAL phytotoxicity rating ([6]; Rate 125 g al/ha) | CHEAL phytotoxicity rating ([6]; Rate 500 g al/ha) | DIGSA phytotoxicity rating ([7]; Rate 500 g al/ha) | AMARE phytotoxicity rating ([8]; Rate 125 g al/ha) | AMARE phytotoxicity rating ([8]; Rate 500 g al/ha) | CASOB phytotoxicity rating ([9]; Rate 500 g al/ha) | ABUTH phytotoxicity rating ([10]; Rate 125 g al/ha) | ABUTH phytotoxicity rating ([10]; Rate 500 g al/ha) | phytotoxicity rating AMBEL ([14]; rate 500 g ai/ha) | phytotoxicity rating SORHA ([15]; rate 500 g ai/ha) | phytotoxicity rating IPOHE ([18]; rate 63 g ai/ha) | phytotoxicity rating IPOHE ([18]; rate 500 g ai/ha) | phytotoxicity rating CHEAL ([19]; rate 500 g ai/ha) | phytotoxicity rating AMARE ([21]; rate 63 g ai/ha) | phytotoxicity rating AMARE ([21]; rate 500 g ai/ha) | phytotoxicity rating CASOB ([22]; rate 500 g ai/ha) | phytotoxicity rating ABUTH ([23]; rate 63 g ai/ha) | phytotoxicity rating ABUTH ([23]; rate 500 g ai/ha) | crop damage rating SOY ([26]; rate 500 g ai/ha)
40: SORHA phytotoxicity rating ([1]; Rate 125 g al/ha) | DIGSA phytotoxicity rating ([7]; Rate 125 g al/ha) | RICE crop damage rating ([12]; Rate 500 g al/ha) | phytotoxicity rating ECHCG ([16]; rate 500 g ai/ha)
20: RICE crop damage rating ([12]; Rate 125 g al/ha) | SOY crop damage rating ([13]; Rate 125 g al/ha) | phytotoxicity rating ECHCG ([16]; rate 63 g ai/ha) | crop damage rating CORN ([24]; rate 500 g ai/ha)
5: CORN crop damage rating ([11]; Rate 125 g al/ha)
15: crop damage rating CORN ([24]; rate 63 g ai/ha) | crop damage rating RICE ([25]; rate 63 g ai/ha)
95: SETVI phytotoxicity rating ([4]; Rate 125 g al/ha) | IPOHE phytotoxicity rating ([5]; Rate 125 g al/ha) | phytotoxicity rating CHEAL ([19]; rate 63 g ai/ha)
90: SORHA phytotoxicity rating ([1]; Rate 500 g al/ha) | AMBEL phytotoxicity rating ([3]; Rate 125 g al/ha) | CASOB phytotoxicity rating ([9]; Rate 125 g al/ha) | phytotoxicity rating AMBEL ([14]; rate 63 g ai/ha) | phytotoxicity rating SORHA ([15]; rate 63 g ai/ha) | phytotoxicity rating CASOB ([22]; rate 63 g ai/ha) | crop damage rating SOY ([26]; rate 63 g ai/ha)
70: phytotoxicity rating SETVI ([17]; rate 63 g ai/ha)
